1 molecule from patent US8574633B2 (priority 2004, dated 2013) can be followed below.

The series relates to ICR mice. As for the experimental part: 2.experimental animals: ICR mice, SPF, male and female, body weight 18-20 g, all bought from Shanghai SIPPR/BK Experimental Animal Co. Laboratory animal license No. SCXK (Hu)2003-0002
3. experimental conditions: SPF experimental environment. Grouped the experimental mice 5 per cage and bred. The breeding temperature was 22±2° C., the humidity was 60-70% and Laboratory animal license number was SCXK (Hu)2002-0035. The mice were bred with the solid high pressure forage. Fasted 12 hours before the test but no water-deprivation.
After administration, the mice were liberated to diet. Observed the mice once immediately, every morning and every afternoon for 7 continuous days. The mice were observed once a day from the 8th day. Record the mortality and toxic reaction of the experimental animals.

“And” between values parts separate entries of the source, which are not always exact repeats. Equal values may be shown once.

In the case of `C/C=C1\[C@H]2C=C(C)C[C@]1(N)c1ccc(=O)[nH]c1C2` [Control medicine, Huperzine A], the “content of HupA at the LD50 of the composition” value (HupA part of the LD50 dose) was found to be 6.03 mg/kg. The LD50 (as a rule, the dose at which mortality reaches 50%) (ICR mice, intragastric, simplified probit method, confidence limit 95%) was 6.03 ± 1.46 mg/kg and 6.03 mg/kg.
